The numbers were not newly measured in paper PMC11258486, “Phase 1 dose escalation study of the MDM2 inhibitor milademetan as monotherapy and in combination with azacitidine in patients with myeloid malignancies” (Cancer Medicine, 2024), which cites them from elsewhere.

In one data set the test system is AML. Also on record: method as in PMID 26459177. As to conditions: phase 1 clinical study in AML; cited from earlier work.
In a further data set the test system is relapsed/refractory AML. The arrangement: method as in PMID 35413116. As to conditions: relapsed/refractory AML and wild‐type p53; cited from earlier work.

On to `CCOc1cc(C(C)(C)C)ccc1C1=N[C@@](C)(c2ccc(Cl)cc2)[C@@](C)(c2ccc(Cl)cc2)N1C(=O)N1CCN(CCCS(C)(=O)=O)CC1` [RG7112], for which the response rate in the data set on AML was ~ 25%.
On to `Nc1ccn([C@@H]2O[C@H](CO)[C@@H](O)[C@@H]2O)c(=O)n1` [cytarabine], for which, in the data set on relapsed/refractory AML, the overall response rate is given as 22%.
